Test results published in US9670250B2, “Alpha-helical peptidomimetic inhibitors and methods using same” (The Trustees of the University of Pennsylvania, priority 2012, dated 2017).
Blank lines part the entries; values can stand above or below the compound they belong to. Starred links: 1 amine or outer side, 2 acyl side, 3 side chain; linkers in the order of their positions; H or OH if unused. Positions of bridges follow the written chain, without caps; N, C: chain ends. Residues, ends and D or L forms follow the SMILES beside them. mXylylene = c1cc(C[*:1])cc(C[*:2])c1

Key:
Cathepsin S = Cathepsin S (Homo sapiens, UniProt P25774); assay: in vitro fluorescence-based protease inhibition assay, cathepsin S; assay type: biochemical
Cathepsin S, sequence (P25774 115-331, species assumed): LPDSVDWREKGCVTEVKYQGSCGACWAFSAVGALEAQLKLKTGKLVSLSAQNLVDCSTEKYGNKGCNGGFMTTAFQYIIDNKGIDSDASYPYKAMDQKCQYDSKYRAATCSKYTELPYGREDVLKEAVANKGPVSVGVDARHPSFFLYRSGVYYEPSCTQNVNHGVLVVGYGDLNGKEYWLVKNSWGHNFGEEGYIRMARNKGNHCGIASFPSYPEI
Description: (§1) Thus, the present invention includes a series of potent and highly specific α-helical inhibitors for papain family cysteine proteases. […] These short α-helical peptidomimetic inhibitors are modeled after the natural pro-domain sequence but contain a cysteine substitution at specific residues in i,i+4 positions, as shown in FIG. 2B. These cysteine residues are used for stabilization of the helix utilizing an appropriate linker (Muppidi, et al., 2011, Chem Commun (Camb) 47:9396-9398). After synthesis, each inhibitor was tested against its respective protease using an in vitro fluorescence-based assay. For each enzyme, at least one inhibitor was identified that is relatively potent and highly specific for its individual protease. These inhibitors can be modified or otherwise optimized to attain higher potency and selectivity through identification of key interactions between the inhibitor and the active site amino acid residues. Such optimization involves visual examination of the protease crystal structure, and substitution with either non-natural or natural amino acids to exploit possible crucial non-covalent protein ligand interactions, such as hydrogen bond, electrostatic, hydrophobic, and Van der Waals interactions.

Calpain-1 = Calpain-1 (Homo sapiens, UniProt P07384); assay: Ki (µM) (Calpain)
Description: Table printed on a drawing sheet, FIGURES 2A & 2B
Head of the field: Ki (µM) (Calpain)
The patent's description of the figure: FIG. 2, comprising FIGS. 2A-2C, illustrate inhibitors of the present invention. FIG. 2A depicts a list of parent and lead cysteine protease inhibitors and their Ki values The bold ‘C’ represents the cysteine linked at the i,i+4 position. […] FIG. 2B is a schematic representation of linked helical peptidomimetics. α,α′-Dibromo-meta-xylene is the i,i+4 linker. FIG. 2C illustrates circular dichroism spectra of unlinked (middle) and linked (right) peptidomimetics (key at left) in 50 mM Tris-HCl buffer (pH 7.5) and 40% trifluoroethanol (TFE). α-Helical stabilization substantially increases helicity in solution.
First copying reader's note: Bold C residues and underlined sequences mark the linked (stapled) peptides; the meanings of N/A and NT are not printed on the sheet.

Calpain (Calpain-1) = target: T1, Calpain (Calpain-1) (Homo sapiens, UniProt P07384); assay: in vitro fluorescence-based protease inhibition assay, calpain; assay type: biochemical
T1 sequence (P07384 1-714): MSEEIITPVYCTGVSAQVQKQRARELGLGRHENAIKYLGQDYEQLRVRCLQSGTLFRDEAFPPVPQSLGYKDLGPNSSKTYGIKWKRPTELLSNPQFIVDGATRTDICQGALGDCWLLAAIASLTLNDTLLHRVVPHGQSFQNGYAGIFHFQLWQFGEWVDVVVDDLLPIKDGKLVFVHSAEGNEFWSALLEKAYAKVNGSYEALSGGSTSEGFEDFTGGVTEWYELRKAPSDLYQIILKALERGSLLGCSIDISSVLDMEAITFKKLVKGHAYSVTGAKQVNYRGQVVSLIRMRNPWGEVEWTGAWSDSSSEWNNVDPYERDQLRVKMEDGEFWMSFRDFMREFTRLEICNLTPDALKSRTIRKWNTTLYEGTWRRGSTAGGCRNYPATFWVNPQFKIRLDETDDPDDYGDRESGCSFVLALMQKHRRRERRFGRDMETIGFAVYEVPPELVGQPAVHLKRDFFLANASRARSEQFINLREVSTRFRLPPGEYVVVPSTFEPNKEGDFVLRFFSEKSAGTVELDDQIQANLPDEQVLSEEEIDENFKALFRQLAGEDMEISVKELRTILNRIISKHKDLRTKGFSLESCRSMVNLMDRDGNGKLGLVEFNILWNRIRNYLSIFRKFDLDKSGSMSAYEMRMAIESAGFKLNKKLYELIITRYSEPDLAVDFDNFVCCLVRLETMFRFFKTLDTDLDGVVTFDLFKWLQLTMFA
T1 sequence (P04632 1-268 partner): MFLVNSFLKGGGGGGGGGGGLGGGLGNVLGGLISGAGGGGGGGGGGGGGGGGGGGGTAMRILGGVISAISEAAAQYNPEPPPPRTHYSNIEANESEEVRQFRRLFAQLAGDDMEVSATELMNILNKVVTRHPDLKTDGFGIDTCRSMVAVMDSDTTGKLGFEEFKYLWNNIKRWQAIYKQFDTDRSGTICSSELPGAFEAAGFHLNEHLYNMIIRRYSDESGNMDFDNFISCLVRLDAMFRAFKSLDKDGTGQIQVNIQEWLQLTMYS
Description: as §1

Cathepsin L = Cathepsin L (Homo sapiens, UniProt P07711); assay: in vitro fluorescence-based protease inhibition assay, cathepsin L; assay type: biochemical
Cathepsin L, sequence (P07711 114-333, species assumed): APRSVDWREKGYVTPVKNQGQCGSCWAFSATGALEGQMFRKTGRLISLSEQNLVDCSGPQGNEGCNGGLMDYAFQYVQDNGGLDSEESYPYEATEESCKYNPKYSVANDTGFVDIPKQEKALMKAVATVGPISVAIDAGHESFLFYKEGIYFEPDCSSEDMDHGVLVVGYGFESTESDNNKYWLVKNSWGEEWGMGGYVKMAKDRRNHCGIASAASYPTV
Description: as §1

Cathepsin K = target: T2, Cathepsin K (Homo sapiens, UniProt P43235); assay: in vitro fluorescence-based protease inhibition assay, cathepsin K; assay type: biochemical
T2 sequence (P43235 115-329): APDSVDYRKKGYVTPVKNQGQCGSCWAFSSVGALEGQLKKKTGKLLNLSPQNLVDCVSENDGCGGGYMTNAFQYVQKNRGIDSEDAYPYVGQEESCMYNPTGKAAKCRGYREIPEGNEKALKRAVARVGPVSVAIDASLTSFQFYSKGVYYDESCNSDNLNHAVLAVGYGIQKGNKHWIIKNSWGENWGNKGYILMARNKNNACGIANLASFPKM
Description: as §1

[1] = Table 2, cathepsin S inhibitors
[2] = Table 3, cathepsin K inhibitors

Compound: CSCC[C@H](NC(=O)[C@H](CC(C)C)NC(=O)[C@H](CO)NC(=O)[C@H](CC(N)=O)NC(=O)[C@H](CCSC)NC(=O)[C@@H](NC(=O)[C@H](CCC(=O)O)NC(=O)[C@H](CCC(=O)O)NC(=O)[C@H](CO)NC(=O)[C@@H](N)[C@@H](C)O)C(C)C)C(=O)N[C@@H](CO)C(=O)N[C@@H](CO)C(=O)O [SEQ ID NO:14, TSEEVMNSLMSS, reference compound] (H-TSEEVMNSLMSS-OH)
cathepsin S inhibitory activity, in words (Cathepsin S): did not demonstrate any intrinsic inhibitory activity

Compound: CC[C@H](C)[C@H](N)C(=O)N1CCC[C@H]1C(=O)N1CCC[C@H]1C(=O)N[C@@H](CCCCN)C(=O)N[C@@H](Cc1ccc(O)cc1)C(=O)N[C@@H](CCCNC(=N)N)C(=O)N[C@@H](CCC(=O)O)C(=O)N[C@@H](CC(C)C)C(=O)N[C@@H](CC(C)C)C(=O)N[C@@H](C)C(=O)O [SEQ ID NO:62, IPPKYRELLA] (H-IPPKYRELLA-OH; N-terminus and C-terminus assumed)
Ki (Calpain-1): > 100 µM

Compound: CSCC[C@@H]1NC(=O)[C@H](CC(C)C)NC(=O)[C@H](CO)NC(=O)[C@@H](NC(=O)[C@@H](NC(=O)[C@H](Cc2c[nH]c3ccccc23)NC(=O)[C@H](CCC(=O)O)NC(=O)[C@H](CO)NC(=O)[C@@H](N)[C@@H](C)O)C(C)C)CSCc2cccc(c2)CSC[C@@H](C(=O)N[C@@H](CO)C(=O)O)NC1=O [compound 20] (H-TSEWVCSLMCS-OH; linker 6-10 via mXylylene; N-terminus and C-terminus assumed)
Ki (Calpain (Calpain-1); [1]): > 100 µM
Ki (Cathepsin L; [1]): 57.1 ± 1.24 µM
Ki (Cathepsin K; [1]): > 100 µM

Compound: CSCC[C@H](NC(=O)[C@H](CCCCN)NC(=O)[C@@H]1CSCc2cccc(c2)CSC[C@H](NC(=O)[C@@H](N)CO)C(=O)N[C@@H](CCC(=O)O)C(=O)N[C@@H](CO)C(=O)N[C@@H](C(C)C)C(=O)N1)C(=O)N[C@H](C(=O)NCC(=O)N[C@@H](CC(C)C)C(=O)O)[C@@H](C)O [compound 37] (H-SCESVCKMTGL-OH; linker 2-6 via mXylylene; N-terminus and C-terminus assumed)
Ki (Calpain (Calpain-1); [2]): > 100 µM
Ki (Cathepsin L; [2]): > 100 µM
Ki (Cathepsin K; [2]): > 100 µM

Compound: CC[C@H](C)[C@H](NC(=O)[C@@H](NC(=O)[C@@H](NC(=O)[C@H](CCC(=O)O)NC(=O)[C@H](CCCNC(=N)N)NC(=O)[C@H](CCCCN)NC(=O)CNC(=O)[C@@H](N)CC(C)C)C(C)C)[C@@H](C)O)C(=O)N1CCC[C@H]1C(=O)N1CCC[C@H]1C(=O)N[C@@H](CCCCN)C(=O)N[C@@H](Cc1ccc(O)cc1)C(=O)N[C@H]1CSCc2cccc(c2)CSC[C@@H](C(=O)O)NC(=O)[C@H](CC(C)C)NC(=O)[C@H](CC(C)C)NC(=O)[C@H](CCC(=O)O)NC1=O [compound 67] (H-LGKREVTIPPKYCELLC-OH; linker 13-17 via mXylylene; N-terminus and C-terminus assumed)
Ki (Calpain (Calpain-1); Table 4, calpain inhibitors): 3.6 ± 1.7 µM
Ki (Cathepsin L; Table 4, calpain inhibitors): > 100 µM
Ki (Cathepsin K; Table 4, calpain inhibitors): > 100 µM

Compound: CC[C@H](C)[C@H](NC(=O)[C@@H](NC(=O)[C@@H](NC(=O)[C@@H](N)CCC(=O)O)C(C)C)[C@@H](C)O)C(=O)N1CCC[C@H]1C(=O)N1CCC[C@H]1C(=O)N[C@@H](CCCCN)C(=O)N[C@@H](Cc1ccc(O)cc1)C(=O)N[C@H]1CSCc2cccc(c2)CSC[C@@H](C(=O)O)NC(=O)[C@H](CC(C)C)NC(=O)[C@H](CC(C)C)NC(=O)[C@H](CCC(=O)O)NC1=O [compound 69] (H-EVTIPPKYCELLC-OH; linker 9-13 via mXylylene; N-terminus and C-terminus assumed)
Ki (Calpain (Calpain-1); Table 4, calpain inhibitors): 5.3 ± 1.9 µM
Ki (Cathepsin K; Table 4, calpain inhibitors): > 100 µM

Compound: SECFRQCMNGF [SEQ ID NO:2]
cathepsin L inhibitory activity, in words (Cathepsin L): low activity

Compound: SEEFRQVMNGF [SEQ ID NO:1, reference compound]
cathepsin L inhibitory activity, in words (Cathepsin L): no inhibitory activity

Compound: TSEEVCSLMCS [SEQ ID NO:16]
potency on cathepsin L over cathepsin S, in words (Cathepsin L): much more potent inhibitor of cathepsin L over cathepsin S
cathepsin S inhibitory activity, in words (Cathepsin S): increased inhibition
effect on cathepsin K (inhibition or activation), in words (Cathepsin K): did not inhibit

Other lines, results leading:

Ki (Calpain (Calpain-1); Table 4, calpain inhibitors): 65.6 ± 20.5 µM
Ki (Cathepsin L; Table 4, calpain inhibitors): 12.5 ± 1.2 µM
Compound: CC(C)C[C@@H]1NC(=O)[C@H](CC(C)C)NC(=O)[C@H](CCC(=O)O)NC(=O)[C@@H](NC(=O)[C@H](Cc2ccc(O)cc2)NC(=O)[C@H](CCCCN)NC(=O)[C@@H]2CCCN2C(=O)[C@@H]2CCCN2C(=O)[C@H](C)N)CSCc2cccc(c2)CSC[C@@H](C(=O)O)NC1=O [compound 72] (H-APPKYCELLC-OH; linker 6-10 via mXylylene; N-terminus and C-terminus assumed)

Ki (Calpain (Calpain-1); Table 4, calpain inhibitors): 11 ± 3.6 µM
Ki (Cathepsin K; Table 4, calpain inhibitors): > 100 µM
Compound: CC(C)C[C@@H]1NC(=O)[C@H](CC(C)C)NC(=O)[C@H](CCC(=O)O)NC(=O)[C@@H](NC(=O)[C@H](Cc2ccc(O)cc2)NC(=O)[C@H](CCCCN)NC(=O)[C@@H]2CCCN2C(=O)[C@@H]2CCCN2C(=O)[C@@H](N)CC(C)C)CSCc2cccc(c2)CSC[C@@H](C(=O)O)NC1=O [compound 74] (H-LPPKYCELLC-OH; linker 6-10 via mXylylene; N-terminus and C-terminus assumed)

Ki (Calpain (Calpain-1); Table 4, calpain inhibitors): 5.3 ± 2 µM
Ki (Cathepsin K; Table 4, calpain inhibitors): > 100 µM
Compound: CC[C@H](C)[C@H](N)C(=O)N1CCC[C@H]1C(=O)N1CCC[C@H]1C(=O)N[C@@H](CCCNC(=N)N)C(=O)N[C@@H](Cc1ccc(O)cc1)C(=O)N[C@H]1CSCc2cccc(c2)CSC[C@@H](C(=O)O)NC(=O)[C@H](CC(C)C)NC(=O)[C@H](CC(C)C)NC(=O)[C@H](CCC(=O)O)NC1=O [compound 80] (H-IPPRYCELLC-OH; linker 6-10 via mXylylene; N-terminus and C-terminus assumed)

Ki (Calpain (Calpain-1); Table 4, calpain inhibitors): 28.9 ± 9.1 µM
Ki (Cathepsin L; Table 4, calpain inhibitors): 12.5 ± 1.1 µM
Compound: CC[C@H](C)[C@H](N)C(=O)N1CCC[C@H]1C(=O)N1CCC[C@H]1C(=O)N[C@@H](CCCCN)C(=O)N[C@@H](Cc1ccc(O)cc1)C(=O)N[C@H]1CSCc2cccc(c2)CSC[C@@H](C(=O)O)NC(=O)[C@H](CC(C)C)NC(=O)[C@H](CC(C)C)NC(=O)[C@H](C)NC1=O [compound 84] (H-IPPKYCALLC-OH; linker 6-10 via mXylylene; N-terminus and C-terminus assumed)

Ki (Calpain (Calpain-1); Table 4, calpain inhibitors): 11 ± 3.6 µM
Ki (Cathepsin K; Table 4, calpain inhibitors): > 100 µM
Compound: CC[C@H](C)[C@H](N)C(=O)N1CCC[C@H]1C(=O)N1CCC[C@H]1C(=O)N[C@@H](CCCCN)C(=O)N[C@@H](Cc1ccc(O)cc1)C(=O)N[C@H]1CSCc2cccc(c2)CSC[C@@H](C(=O)O)NC(=O)[C@H](CC(C)C)NC(=O)[C@H](CCC(N)=O)NC(=O)[C@H](CCC(=O)O)NC1=O [compound 85] (H-IPPKYCEQLC-OH; linker 6-10 via mXylylene; N-terminus and C-terminus assumed)

specificity for cathepsin S over cathepsin L (Cathepsin S): twice as specific
Compound: TWEWVCSLMCS [SEQ ID NO:23]
